Holding throughout (format): cell-based
The target in experiment [1] is T1, DUB activity in cells (NCI-H929, Z138, MM.1S, A375) (Homo sapiens, UniProt Q93008).
T1 construct: endogenous in cells; host or cells: NCI-H929, Z138, MM.1S, A375
Put plainly: HA-Ubiquitin-Vinylsulfone (HA-Ub-VS) cell labeling assay. The note with it: compound tested at 5 μM; HA-Ub-VS labeling of USP9x in cells. The method, then:
Example B-1: HA-Ubiqutin-Vinylsulfone (HA-Ub-VS) Cell Labeling
Inhibitition of DUB activity is measured in cells (NCI-H929, Z138, MM.1S, A375) using a hemaglutinin-ubiquitin-vinylsulfone (HA-Ub-VS) labeling assay. Briefly, 1-2×10^6 cells are plated in 12-well plates in 1 ml complete growth media and 250 μl of test compound in 0.5% dimethylsulfoxide (or DMSO control) is added to each well. Plates are incubated at 37° C., 5% CO2 for 2-6 hours before cells are harvested into eppendorf tubes, washed once in PBS and resuspended in 100 μl cold lysis buffer (50 mM Tris pH 8, 150 mM NaCl, 0.5% NP-40, 2 mM phenylmethylsulfonyl fluoride and complete protease inhibitor tablet). Resupended cells are frozen on dry ice, then thawed and incubated on ice for 15 minutes. Tubes are centrifuged for 10 minutes at 14,000 rpm at 4° C. and the cleared supernatants transferred to clean tubes. […] The samples are incubated 15-60 min at 37° C. before the addition of SDS gel loading buffer. Proteins are separated by SDS-PAGE, transferred to nitrocellulose and the blot probed with anti-HA antibody and anti-β-actin antibodies. The HA and β-actin antibodies are detected using secondary antibodies coupled to IRdye 800 or IRdye 680 and visualized and quantitated using the LiCor Odyssey machine.
(§1) The following compounds were tested in the above assays at 5 μM: […]

Experiment [2] concerns Mcl-1 expression in cells (NCI-H929, Z138, MM.1S, A-375). Put plainly: Analysis of Mcl-1 expression by Western blotting. The conditions noted are these: compound tested at 5 μM; Western blot. The protocol: (§2) Example B-2: Analysis of Md-1 Expression and PARP Cleavage
(§3) The ability of test compounds to decrease expression of the tumor promoting protein, Mcl-1, and to induce the inactivation/cleavage of the PARP protein is evaluated in cells (NCI-H929, Z138, MM.1S, A-375) by Western blotting. Cells are plated and treated as described in the HA-Ub-VS cell labeling assay (see above). A portion of the cleared lysate (15-50 μl) is run on an SDS-polyacrylamide gel to separate proteins and then transferred to nitrocellulose. After transfer to nitrocellulose, the proteins are detected by probing the blot with anti-Mcl-1 and anti-PARP antibodies followed by secondary antibodies coupled to IRdye 800 and IRdye 680 and visualization and quantitation using a LiCor Odyssey machine. Activity of the test compound is identified as a significant decrease in Mcl-1 expression relative to the vehicle treated cells and to the appearance of a cleaved fragment of PARP relative to the vehicle-treated cells.
as §1

Experiment [3] has as its system PARP cleavage in cells (NCI-H929, Z138, MM.1S, A-375). The experiment is described as follows: Analysis of PARP cleavage by Western blotting. The note with it: compound tested at 5 μM; Western blot. The protocol:
as §2, §3, §1

T1 sequence (Q93008 whole entry): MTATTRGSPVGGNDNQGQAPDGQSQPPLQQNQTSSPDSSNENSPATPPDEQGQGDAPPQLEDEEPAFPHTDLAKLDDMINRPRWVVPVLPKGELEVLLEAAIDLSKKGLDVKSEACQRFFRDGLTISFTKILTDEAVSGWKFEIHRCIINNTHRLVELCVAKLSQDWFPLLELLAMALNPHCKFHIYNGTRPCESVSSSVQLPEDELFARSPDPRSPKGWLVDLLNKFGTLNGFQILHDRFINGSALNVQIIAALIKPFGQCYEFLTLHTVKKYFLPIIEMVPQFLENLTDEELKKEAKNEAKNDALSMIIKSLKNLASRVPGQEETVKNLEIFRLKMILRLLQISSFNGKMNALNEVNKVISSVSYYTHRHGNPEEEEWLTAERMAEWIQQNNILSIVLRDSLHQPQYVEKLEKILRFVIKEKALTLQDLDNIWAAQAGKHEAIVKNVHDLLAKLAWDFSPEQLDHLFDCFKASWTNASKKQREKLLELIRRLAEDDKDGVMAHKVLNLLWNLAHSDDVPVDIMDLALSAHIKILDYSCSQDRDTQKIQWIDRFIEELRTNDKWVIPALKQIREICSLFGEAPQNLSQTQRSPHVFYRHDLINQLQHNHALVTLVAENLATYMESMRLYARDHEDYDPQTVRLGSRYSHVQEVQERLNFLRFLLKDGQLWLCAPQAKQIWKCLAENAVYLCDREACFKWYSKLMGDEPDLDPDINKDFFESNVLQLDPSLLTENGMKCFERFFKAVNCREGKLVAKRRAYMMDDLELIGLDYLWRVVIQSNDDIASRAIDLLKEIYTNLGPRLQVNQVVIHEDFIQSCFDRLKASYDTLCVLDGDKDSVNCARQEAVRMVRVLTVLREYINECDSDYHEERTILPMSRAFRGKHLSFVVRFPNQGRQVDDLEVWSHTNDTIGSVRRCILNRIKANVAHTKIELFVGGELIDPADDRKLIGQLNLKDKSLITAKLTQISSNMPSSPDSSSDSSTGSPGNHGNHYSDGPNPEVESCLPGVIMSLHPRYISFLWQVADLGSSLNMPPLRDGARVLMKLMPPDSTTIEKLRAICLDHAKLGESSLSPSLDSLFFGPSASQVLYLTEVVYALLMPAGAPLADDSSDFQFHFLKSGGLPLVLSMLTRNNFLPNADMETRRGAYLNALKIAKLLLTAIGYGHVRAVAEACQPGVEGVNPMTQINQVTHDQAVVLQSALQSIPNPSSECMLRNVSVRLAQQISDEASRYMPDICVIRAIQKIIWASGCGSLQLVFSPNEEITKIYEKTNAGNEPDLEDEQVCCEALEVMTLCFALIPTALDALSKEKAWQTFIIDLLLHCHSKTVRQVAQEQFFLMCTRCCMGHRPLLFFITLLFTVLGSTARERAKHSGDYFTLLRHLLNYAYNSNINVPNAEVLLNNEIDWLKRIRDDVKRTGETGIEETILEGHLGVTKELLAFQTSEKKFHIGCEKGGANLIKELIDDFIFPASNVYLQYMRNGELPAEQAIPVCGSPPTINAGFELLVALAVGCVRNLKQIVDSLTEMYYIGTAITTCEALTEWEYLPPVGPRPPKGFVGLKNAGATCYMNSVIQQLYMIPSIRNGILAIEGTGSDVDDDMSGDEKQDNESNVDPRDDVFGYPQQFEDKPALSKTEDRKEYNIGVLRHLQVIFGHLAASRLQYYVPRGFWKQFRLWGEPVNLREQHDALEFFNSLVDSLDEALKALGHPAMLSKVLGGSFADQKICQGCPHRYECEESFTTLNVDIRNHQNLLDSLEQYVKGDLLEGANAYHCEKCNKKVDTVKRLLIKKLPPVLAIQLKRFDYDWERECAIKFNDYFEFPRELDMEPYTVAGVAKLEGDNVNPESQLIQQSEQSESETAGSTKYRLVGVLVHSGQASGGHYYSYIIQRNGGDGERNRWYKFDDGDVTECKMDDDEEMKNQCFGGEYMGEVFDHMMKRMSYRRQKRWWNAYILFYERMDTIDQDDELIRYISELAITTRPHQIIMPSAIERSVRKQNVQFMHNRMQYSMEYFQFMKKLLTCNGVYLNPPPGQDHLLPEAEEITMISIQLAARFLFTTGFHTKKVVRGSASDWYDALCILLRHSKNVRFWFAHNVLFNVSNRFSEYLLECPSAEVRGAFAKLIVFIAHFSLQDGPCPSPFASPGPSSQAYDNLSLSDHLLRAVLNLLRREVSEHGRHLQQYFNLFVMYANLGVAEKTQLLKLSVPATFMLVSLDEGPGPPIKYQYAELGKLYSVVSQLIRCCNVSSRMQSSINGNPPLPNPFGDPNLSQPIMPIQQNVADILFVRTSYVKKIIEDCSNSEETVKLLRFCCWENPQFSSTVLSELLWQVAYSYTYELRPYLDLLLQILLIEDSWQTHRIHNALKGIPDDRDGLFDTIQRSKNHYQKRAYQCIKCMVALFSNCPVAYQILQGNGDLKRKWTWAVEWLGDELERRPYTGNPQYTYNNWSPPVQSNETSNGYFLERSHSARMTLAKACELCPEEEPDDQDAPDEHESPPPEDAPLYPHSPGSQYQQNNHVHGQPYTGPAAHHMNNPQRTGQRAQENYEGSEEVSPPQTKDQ

`N#C/C(=C\c1ccc(O)cc1)C(=O)NC1(c2ccccc2)CCCC1` [Compound 13, (E)-3-(4-Hydroxyphenyl)-2-cyano-N-(1-phenylcyclopentyl)acrylamide]: the inhibition at 5 µM in experiment [1] and in experiment [2] was under 25% throughout. Also, the “PARP cleavage % Inhibition” value in experiment [3] is recorded as “D (D is <25% inhibition)”.

For `COc1ccc(/C=C(\C#N)C(=O)NC2(c3ccccc3)CCCC2)cc1O` [Compound 14, (E)-3-(3-Hydroxy-4-methoxyphenyl)-2-cyano-N-(1-phenylcyclopentyl)acrylamide], the inhibition at 5 µM in experiment [1] and in experiment [2] was under 25% throughout. Also, the “PARP cleavage % Inhibition” value in experiment [3] is listed as “D (D is <25% inhibition)”.

As for `N#C/C(=C\c1cccc(Br)n1)C(=O)NC1(c2ccc(Br)cc2)CCCC1` [Compound 15, (E)-N-(1-(4-bromophenyl)cyclopentyl)-3-(6-bromopyridin-2-yl)-2-cyanoacrylamide], the inhibition at 5 µM in experiment [1] and in experiment [2] was at least 75% throughout. The “PARP cleavage % Inhibition” value in experiment [3] was “A (A is ≧75% inhibition)”.

In the case of `COc1ccc(C2(NC(=O)/C(C#N)=C/c3cccc(Br)n3)CCCC2)cc1` [Compound 16, (E)-3-(6-Bromopyridin-2-yl)-2-cyano-N-(1-(4-methoxyphenyl)cyclopentyl)acrylamide], the inhibition at 5 µM in experiment [1] and in experiment [2] was 50 to 75% throughout. Further, the “PARP cleavage % Inhibition” value in experiment [3] is on record as “A (A is ≧75% inhibition)”.

On to `N#C/C(=C\c1cccc(Br)n1)C(=O)NC1(c2ccccc2)CCCCC1` [Compound 17, (E)-3-(6-Bromopyridin-2-yl)-2-cyano-N-(1-phenylcyclohexyl)acrylamide], for which the figures for the inhibition at 5 µM in experiment [1] and in experiment [2] were 25 to 50% and 50 to 75%, respectively. Moreover, the “PARP cleavage % Inhibition” value in experiment [3] is given as “A (A is ≧75% inhibition)”.

`N#C/C(=C\c1cccc(Br)n1)C(=O)NC1(c2ccccc2)CCOCC1` [Compound 18, (E)-3-(6-Bromopyridin-2-yl)-2-cyano-N-(4-phenyltetrahydro-2H-pyran-4-yl)acrylamide]: the values for the inhibition at 5 µM in experiment [1] and in experiment [2] were 50 to 75% and 25 to 50%, respectively. The “PARP cleavage % Inhibition” value in experiment [3] is given as “B (B is 50% to 75% inhibition)”.

With `N#C/C(=C\c1ncc(Br)cc1Br)C(=O)NC1(c2ccc(C(F)(F)F)cc2)CCCC1` [Compound 19, (E)-2-Cyano-3-(3,5-dibromopyridin-2-yl)-N-(1-(4-(trifluoromethyl)phenyl)cyclopentyl) acrylamide], the inhibition at 5 µM in experiment [1] and in experiment [2] was at least 75% in each case. The “PARP cleavage % Inhibition” value in experiment [3] is given as “A (A is ≧75% inhibition)”.

On to `N#C/C(=C\c1ncc(Br)cc1Br)C(=O)NC1(c2cccc(Cl)c2)CCCC1` [Compound 20, (E)-N-(1-(3-Chlorophenyl)cyclopentyl)-2-cyano-3-(3,5-dibromopyridin-2-yl)acrylamide], for which the inhibition at 5 µM in experiment [1] and in experiment [2] was at least 75% throughout. For the same molecule, the “PARP cleavage % Inhibition” value in experiment [3] is “A (A is ≧75% inhibition)”.

`N#C/C(=C\c1ncc(Br)cc1Br)C(=O)NC1(c2ccc(F)cc2)CCCC1` [Compound 21, (E)-2-Cyano-3-(3,5-dibromopyridin-2-yl)-N-(1-(4-fluorophenyl)cyclopentyl)acrylamide]: the inhibition at 5 µM in experiment [1] and in experiment [2] was at least 75% throughout. Further, in experiment [3], the “PARP cleavage % Inhibition” value was “A (A is ≧75% inhibition)”.

With `N#C/C(=C\c1ncc(Br)cc1Br)C(=O)NC1(c2ccc(Cl)cc2)CCCC1` [Compound 22, (E)-N-(1-(4-Chlorophenyl)cyclopentyl)-2-cyano-3-(3,5-dibromopyridin-2-yl)acrylamide], the inhibition at 5 µM in experiment [1] and in experiment [2] was at least 75% each time. In addition, the “PARP cleavage % Inhibition” value in experiment [3] is “A (A is ≧75% inhibition)”.

With `N#C/C(=C\c1ncc(Br)cc1Br)C(=O)NC1(c2ccccc2)CCCCC1` [Compound 23, (E)-2-Cyano-3-(3,5-dibromopyridin-2-yl)-N-(1-phenylcyclohexyl)acrylamide], the inhibition at 5 µM in experiment [1] and in experiment [2] was at least 75% in each case. Further, the “PARP cleavage % Inhibition” value in experiment [3] was “A (A is ≧75% inhibition)”.

For the molecule `N#C/C(=C\c1ncc(Br)cc1Br)C(=O)NC1(c2ccccc2)CCOCC1` [Compound 24, (E)-2-Cyano-3-(3,5-dibromopyridin-2-yl)-N-(4-phenyltetrahydro-2H-pyran-4-yl)acrylamide], the values for the inhibition at 5 µM in experiment [1] and in experiment [2] were at least 75% and 50 to 75%, respectively. In experiment [3], the “PARP cleavage % Inhibition” value is given as “A (A is ≧75% inhibition)”.

As to `N#C/C(=C\c1ncc(Br)cc1Br)C(=O)NC1(c2ccccc2)CCCCCC1` [Compound 25, (E)-2-Cyano-3-(3,5-dibromopyridin-2-yl)-N-(1-phenylcycloheptyl)acrylamide], the inhibition at 5 µM in experiment [1] and in experiment [2] was at least 75% throughout. The “PARP cleavage % Inhibition” value in experiment [3] is reported as “A (A is ≧75% inhibition)”.

As to `Cc1cccc(C2(NC(=O)/C(C#N)=C/c3ncc(Br)cc3Br)CCCC2)c1` [Compound 26, (E)-2-cyano-3-(3,5-dibromopyridin-2-yl)-N-(1-(m-tolyl)cyclopentyl)acrylamide], the inhibition at 5 µM in experiment [1] and in experiment [2] was at least 75% throughout. In addition, in experiment [3], the “PARP cleavage % Inhibition” value was “A (A is ≧75% inhibition)”.

Regarding `CC(C)(C)c1ccc(C2(NC(=O)/C(C#N)=C/c3ncc(Br)cc3Br)CCCC2)cc1` [Compound 27, (E)-N-(1-(4-(tert-butyl)phenyl)cyclopentyl)-2-cyano-3-(3,5-dibromopyridin-2-yl)acrylamide], the inhibition at 5 µM in experiment [1] and in experiment [2] was at least 75% throughout. Moreover, in experiment [3], the “PARP cleavage % Inhibition” value is “A (A is ≧75% inhibition)”.

In the case of `N#C/C(=C\c1cc(Br)ccn1)C(=O)NC1(c2ccccc2)CCCC1` [Compound 28, (E)-3-(4-bromopyridin-2-yl)-2-cyano-N-(1-phenylcyclopentyl)acrylamide], the inhibition at 5 µM in experiment [1] and in experiment [2] was under 25% each time. Also, in experiment [3], the “PARP cleavage % Inhibition” value was “D (D is <25% inhibition)”.

As for `N#C/C(=C\c1ccc(Br)cn1)C(=O)NC1(c2ccccc2)CCCC1` [Compound 29, (E)-3-(5-bromopyridin-2-yl)-2-cyano-N-(1-phenylcyclopentyl)acrylamide], the inhibition at 5 µM was 50 to 75% in experiment [1] and under 25% in experiment [2]. Further, in experiment [3], the “PARP cleavage % Inhibition” value is recorded as “A (A is ≧75% inhibition)”.

Turning to `N#C/C(=C\c1cccc(-c2cccnc2)n1)C(=O)NC1(c2ccccc2)CCCC1` [Compound 30, (E)-3-([2,3′-bipyridin]-6-yl)-2-cyano-N-(1-phenylcyclopentyl)acrylamide], the inhibition at 5 µM in experiment [1] and in experiment [2] was 25 to 50% in each case. Besides, in experiment [3], the “PARP cleavage % Inhibition” value is “A (A is ≧75% inhibition)”.

With `CCOC(=O)c1ccc(-c2cccc(/C=C(\C#N)C(=O)NC3(c4ccccc4)CCCC3)n2)cc1` [Compound 31, (E)-ethyl 4-(6-(2-cyano-3-oxo-3-((1-phenylcyclopentyl)amino)prop-1-en-1-yl)pyridin-2-yl)benzoate], the inhibition at 5 µM was 25 to 50% in experiment [1] and under 25% in experiment [2]. Besides, the “PARP cleavage % Inhibition” value in experiment [3] is “B (B is 50% to 75% inhibition)”.

In the case of `CCOC(=O)c1ccc(-c2ccc(C3(NC(=O)/C(C#N)=C/c4ncc(Br)cc4Br)CCCC3)cc2)cc1` [Compound 32, (E)-ethyl 4′-(1-(2-cyano-3-(3,5-dibromopyridin-2-yl)acrylamido)cyclopentyl)-[1,1′-biphenyl]-4-carboxylate], the inhibition at 5 µM in experiment [1] and in experiment [2] was under 25% in each case. Further, the “PARP cleavage % Inhibition” value in experiment [3] was “D (D is <25% inhibition)”.

Consider `COC(=O)c1cncc(-c2cccc(/C=C(\C#N)C(=O)NC3(c4ccccc4)CCCC3)n2)c1` [Compound 33], for which the inhibition at 5 µM in experiment [1] was 50 to 75%; in experiment [2] it was at least 75%. Further, in experiment [3], the “PARP cleavage % Inhibition” value is on record as “A (A is ≧75% inhibition)”.

For `COC(=O)c1cccc(-c2cccc(/C=C(\C#N)C(=O)NC3(c4ccccc4)CCCC3)n2)c1` [Compound 34], the values for the inhibition at 5 µM in experiment [1] and in experiment [2] were 50 to 75% and 25 to 50%, respectively. Also, in experiment [3], the “PARP cleavage % Inhibition” value is listed as “A (A is ≧75% inhibition)”.

(Values after patent US20170088520A1, “DEUBIQUITINASE INHIBITORS” (PharmAkea, Inc., priority 2014, published 2017).)
